Laboratory results reported in paper PMC9688530, “Development of Ic-ELISA and Colloidal Gold Lateral Flow Immunoassay for the Determination of Cypermethrin in Agricultural Samples” (Biosensors, 2022).

Key:
anti-CYP mAb = experiment: colloidal gold LFIA strip; type: binding, mouse; details: for CR of LFIA: CR = vLOD of CYP/vLOD of analogue × 100%; for visual limit of detection (vLOD): optimal buffer
Experimental: Colloidal gold particles were synthesized with trisodium citrate as a reducing agent according to our previous work. For the preparation of colloidal gold mAb, 6.65 μg/mL anti-CYP mAbs were added to the colloidal gold solution adjusted to pH 8.2 using 0.2 mol/L K2CO3 with shaking at room temperature for 1 h. BSA (1%) was used to block free colloidal gold particles. After 1 h, the mixture was centrifuged at 12,000 revolutions per minute (RPM) for 15 min to remove free anti-CYP mAbs. The centrifuged deposits were resuspended using one-tenth of the original volume of sodium borate solution (0.01 mol/L) containing 2% BSA and 3% sucrose and preserved at 4 °C.
As depicted in Figure 1A, the LFIA strip was assembled into four components. The center section of a PVC plate was affixed to an NC membrane. The sample pad and absorption pad were stuck on both ends of the PVC plate, and both overlapped with the NC membrane by 1 mm. A total of 2 mg/mL of hapten 5-BSA and 0.5 mg/mL of GAMA were sprayed onto the NC membrane as the test line and control line, respectively, with 5 mm intervals by an automatic dispenser. After drying at 37 °C for 12 h, the fabricated cards were cut into 4 mm wide LFIA strips.
One hundred microliters of the CYP standard solution and 4 μL of the colloidal gold mAb solution were added into a micropore and mixed. After 5 min, an LFIA strip was inserted into the mixture solution. During the mixed solution migration from the sample pad to the absorbent pad, colloidal gold mAb was captured by the T and C lines, resulting in the appearance of color bands within 10 min. When the T line disappeared or the color intensity of the T line was lower than that of the C line, the result was positive (Figure 1B,C). When the color intensity of the T line was not less than that of the C line, the result was negative (Figure 1D).
The sensitivity of the LFIA strip was evaluated by a series of CYP standard solutions (0.7, 0.6, 0.5, 0.4, 0.3, 0.2, 0.1, 0 μg/mL). For qualitative analysis, the sensitivity of the LFIA strip was appraised by the visual LOD (vLOD) and the cut-off value. The vLOD is the lowest concentration of CYP at which the lighter color of the T line is observed compared to the C line. The cut-off value is the minimum CYP concentration at which no color band appears on the T line.
The CRs of the LFIA were calculated with the following equation:CR (%) = (vLOD of CYP/vLOD of analogues) × 100%.

anti-CYP mAb 2G7H9 = experiment: ic-ELISA based on mAb 2G7H9; type: binding, mouse; details: CR = IC50 of CYP/IC50 of analogue × 100%
Experimental: The ic-ELISA procedure was executed according to previous studies. Each well of the ELISA plate was coated with 100 μL of coating antigen diluted with carbonate buffer (0.05 mol/L, pH 9.6) at 4 °C overnight. After washing three times with phosphate-buffered saline (PBS, 0.01 mol/L, pH 7.4) containing 1‰ Tween-20, the wells were blocked with 200 μL of 5% skim milk powder in PBS at 37 °C for two hours. After the same washing procedure, 50 μL of CYP standard solution and 50 μL of mAb were pipetted into each well and incubated at 37 °C for one hour. After washing five times, 100 μL per well of 0.5‰ horseradish peroxidase-labeled goat anti-mouse IgG antibody in PBS was added and incubated at 37 °C for one hour. After the wells were washed five times, 100 μL per well of fresh substrate solution (0.1 mg/mL 3,3′,5,5′-tetramethylbenzidine and 0.024‰ H2O2 in 0.1 M citrate acid buffer) was added to react at 37 °C for 15 min. Then, 50 μL per well of 0.2 mol/L H2SO4 was used to stop the reaction, and the absorbances were read at 450 nm with a microplate reader.
Under the optimal conditions, a standard curve was constructed using a series of concentrations of standard solutions (50, 25, 12.5, 6.25, 3.13, 1.56, 0.78, 0.39 and 0.20 ng/mL) to assess the sensitivity of ic-ELISA. The IC50 and linear range (IC10–IC90) were calculated by a logistic equation established with Origin Pro 8.0.
The CRs of the ic-ELISA were calculated with the following equation:CR (%) = (IC50 of CYP/IC50 of analogues) × 100%.

| Compound | CR of LFIA (anti-CYP mAb) [%] | visual limit of detection (vLOD) (anti-CYP mAb) [µg/mL] | Cross-reactivity rate (%) of ic-ELISA (anti-CYP mAb 2G7H9) [%] |
| --- | --- | --- | --- |
| CC1(C)C(C=C(Cl)Cl)C1C(=O)OC(C#N)c1ccc(F)c(Oc2ccccc2)c1 (stereo not drawn) [cyfluthrin] | 30 | 1 | 31.09 |
| CC1(C)C(/C=C(\Cl)C(F)(F)F)C1C(=O)OC(C#N)c1cccc(Oc2ccccc2)c1 (stereo not drawn) [cyhalothrin] | 3 | 10 | 16.15 |
